Data from US20250230193A1, “CYCLIC COMPOUND HAVING SELECTIVE KRAS INHIBITORY EFFECT ON HRAS AND NRAS” (CHUGAI SEIYAKU KABUSHIKI KAISHA, priority 2022, published 2025).
Where a SMILES comes first, the peptide text is derived from it. Bridges are numbered along the chain shown (N, C = ends). [ ]: non-standard residue; d: D form. The star is where a group is joined. hPhe(3-Cl-4-CF3) = N[C@@H](CCc1ccc(C(F)(F)F)c(Cl)c1)C(=O)O; 3Oxa8azabicyclo(3.2.1)octane = C1CC2COCC1N2*; NEtPhe(4-Me) = CCN[C@@H](Cc1ccc(C)cc1)C(=O)O; NMePhe(4-Me) = CN[C@@H](Cc1ccc(C)cc1)C(=O)O; NMeGly(cPent) = CN[C@H](C(=O)O)C1CCCC1; NMeD = CN[C@@H](CC(=O)O)C(=O)O; NMeL = CN[C@@H](CC(C)C)C(=O)O; NMeA = CN[C@@H](C)C(=O)O; NMeAib = CNC(C)(C)C(=O)O; Nle = CCCC[C@H](N)C(=O)O; Piperidide = C1CCN(*)CC1; Ac5c = NC1(C(=O)O)CCCC1; Aze = O=C(O)[C@@H]1CCN1; Sar = CNCC(=O)O

Experiments:
[1] = target: GDP-bound HRAS wild-type protein (Homo sapiens, UniProt P01112); assay: Binding to HRAS by surface plasmon resonance (SPR), Single Cycle Kinetics; settings: SPR; for HRAS/KRAS (ratio of KD value with respect to GDP-bound HRAS wild-type protein to KD value with respect to KRAS): GDP-bound wild-type proteins
[2] = target: GDP-bound NRAS wild-type protein (Homo sapiens, UniProt P01111); assay: Binding to NRAS by surface plasmon resonance (SPR), Single Cycle Kinetics; settings: SPR; for NRAS/KRAS (ratio of KD value with respect to GDP-bound NRAS wild-type protein to KD value with respect to KRAS): GDP-bound wild-type proteins
[3] = KD ratio, GDP-bound HRAS wild-type vs GDP-bound KRAS wild-type
[4] = KD ratio, GDP-bound NRAS wild-type vs GDP-bound KRAS wild-type

Chain of GDP-bound HRAS wild-type protein (P01112 whole entry): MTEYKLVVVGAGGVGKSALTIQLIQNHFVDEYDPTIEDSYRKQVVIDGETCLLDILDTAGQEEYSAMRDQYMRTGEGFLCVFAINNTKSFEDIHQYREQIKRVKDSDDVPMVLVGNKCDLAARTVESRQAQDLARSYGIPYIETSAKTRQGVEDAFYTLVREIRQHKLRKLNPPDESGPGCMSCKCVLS
Chain of GDP-bound NRAS wild-type protein (P01111 whole entry): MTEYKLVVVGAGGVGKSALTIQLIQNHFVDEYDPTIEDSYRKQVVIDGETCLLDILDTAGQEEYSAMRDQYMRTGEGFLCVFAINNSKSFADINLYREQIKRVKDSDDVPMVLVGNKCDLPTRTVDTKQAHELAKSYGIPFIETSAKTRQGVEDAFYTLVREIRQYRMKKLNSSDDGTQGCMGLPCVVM

SMILES: CCO[C@@H]1C[C@H]2C(=O)NC3(CCC3)C(=O)N(C)[C@@H](C3CCCC3)C(=O)N(C)[C@H](C(=O)N3CCOCC3)CC(=O)N(C)[C@@H](Cc3ccc(C#N)cc3)C(=O)N[C@@H]([C@@H](C)CC)C(=O)N(C)CC(=O)N(C)[C@H]3CCCCCN(C3=O)[C@@H](Cc3ccc(F)cc3)C(=O)N(C)CC(=O)N[C@@H](CCc3cc(F)c(C(F)(F)F)c(F)c3)C(=O)N2C1 [PP1187]
- HRAS/KRAS (ratio of KD value with respect to HRAS to KD value with respect to KRAS) [1, 3]: B (a compound having 3 or more and less than 10 is denoted as B)
- NRAS/KRAS (ratio of KD value with respect to NRAS to KD value with respect to KRAS) [2, 4]: B (a compound having 3 or more and less than 10 is denoted as B)

SMILES: CCO[C@@H]1C[C@H]2C(=O)NC3(CCC3)C(=O)N(C)[C@@H](C3CCCC3)C(=O)N(C)[C@H](C(=O)N(C)CC)CC(=O)N(C)[C@H]3CCC/C=C/c4ccc(cc4)C[C@@H](C(=O)N(C)CC(=O)N[C@@H](CCc4ccc(C(F)(F)F)c(OC)c4)C(=O)N2C1)N1CC/C=C\C[C@@H](C1=O)N(C)C(=O)CN(C)C(=O)[C@H]([C@@H](C)CC)NC3=O [PP1834]
- HRAS/KRAS (ratio of KD value for HRAS to KD value for KRAS) [1, 3]: B (a compound having 3 or more and less than 10 is denoted as B)
- NRAS/KRAS (ratio of KD value for NRAS to KD value for KRAS) [2, 4]: A (a compound having 10 or more and less than 20 is denoted as A)

SMILES: CCO[C@@H]1C[C@H]2C(=O)NC3(CCC3)C(=O)N(C)[C@@H](C3CCCC3)C(=O)N(C)[C@H](C(=O)N(C)CCOC)CC(=O)N(C)[C@@H](CC3CC3)C(=O)N[C@@H]([C@@H](C)CC)C(=O)N(C)CC(=O)N(C)[C@H]3C/C=C\CCN(C3=O)[C@@H](Cc3ccc(C(F)(F)F)cc3)C(=O)N(C)CC(=O)N[C@@H](CCc3ccc(C(F)(F)F)c(OC)c3)C(=O)N2C1 [PP1327]
- HRAS/KRAS (ratio of KD value for GDP-bound HRAS wild-type protein to KD value for KRAS) ([1]; KD ratio class): A (a compound having 10 or more and less than 20 is denoted as A)
- NRAS/KRAS (ratio of KD value for GDP-bound NRAS wild-type protein to KD value for KRAS) ([2]; KD ratio class): A (a compound having 10 or more and less than 20 is denoted as A)

SMILES: CC[C@H](C)[C@@H]1NC(=O)[C@H](CC(C)C)N(C)C(=O)C[C@@H](C(=O)N2C3CCC2COC3)N(C)C(=O)[C@H](C2CCCC2)N(C)C(=O)C2(CCCC2)NC(=O)[C@@H]2CCCN2C(=O)[C@H](CCc2ccc(C(F)(F)F)c(Cl)c2)NC(=O)CN(C)C(=O)[C@H](Cc2ccc(C)cc2)N(CC)C(=O)CN(C)C(=O)CN(C)C1=O [PP0051] ([NMeL]I[Sar][Sar][NEtPhe(4-Me)][Sar][hPhe(3-Cl-4-CF3)]P[Ac5c][NMeGly(cPent)][NMeD]-{3Oxa8azabicyclo(3.2.1)octane}; lactam N-11)
- HRAS/KRAS (ratio of KD for GDP-bound HRAS wild-type to KD for KRAS) [1]: C (A compound having a KD ratio of 0.1 or more and less than 3 is denoted as C)
- NRAS/KRAS (ratio of KD for GDP-bound NRAS wild-type to KD for KRAS) [2]: C (A compound having a KD ratio of 0.1 or more and less than 3 is denoted as C)

SMILES: CCCC[C@@H]1NC(=O)[C@H](CCc2ccc(C(F)(F)F)c(Cl)c2)NC(=O)CN(C)C(=O)[C@H](Cc2ccc(C)cc2)N(C)C(=O)[C@@H]2CCN2C(=O)[C@H](C)N(C)C(=O)[C@H]([C@@H](C)CC)NC(=O)[C@H](CC(C)C)N(C)C(=O)C[C@@H](C(=O)N2CCCCC2)N(C)C(=O)[C@H](CC(C)C)NC(=O)C(C)(C)N(C)C1=O [PP0047] ([NMeL]I[NMeA][Aze][NMePhe(4-Me)][Sar][hPhe(3-Cl-4-CF3)][Nle][NMeAib]L[NMeD]-Piperidide; lactam N-11)
- HRAS/KRAS (ratio of KD for GDP-bound HRAS wild-type to KD for KRAS) [1]: C (A compound having a KD ratio of 0.1 or more and less than 3 is denoted as C)
- NRAS/KRAS (ratio of KD for GDP-bound NRAS wild-type to KD for KRAS) [2]: C (A compound having a KD ratio of 0.1 or more and less than 3 is denoted as C)

SMILES: CCC[C@H]1C(=O)N[C@@H](C2CCCCC2)C(=O)N(C)CC(=O)N(C)[C@H]2C/C=C\CCN(C2=O)[C@@H](Cc2ccc(C(F)(F)F)cc2)C(=O)N(C)CC(=O)N[C@@H](CCc2ccc(C(F)(F)F)c(Cl)c2)C(=O)N2C[C@H](OCC)C[C@H]2C(=O)NC2(CC(C)(C)C2)C(=O)N(C)[C@@H](C2CCCC2)C(=O)N(C)[C@H](C(=O)N(C)C)CC(=O)N1C [PP2996]
- HRAS/KRAS (ratio of KD value with respect to GDP-bound HRAS wild-type protein to KD value with respect to KRAS) [1]: A (a compound having 10 or more and less than 20 is denoted as A)
- NRAS/KRAS (ratio of KD value with respect to GDP-bound NRAS wild-type protein to KD value with respect to KRAS) [2]: AA (a compound having 20 or more is denoted as AA)

SMILES: CCO[C@@H]1C[C@H]2C(=O)NC3(CCC3)C(=O)N(C)[C@@H](C(CC)CC)C(=O)N(C)[C@H](C(=O)N3CCCC3)CC(=O)N(C)[C@H]3CCCCC/C=C/c4ccc(cc4)C[C@@H](C(=O)N(C)CC(=O)N[C@@H](CCc4ccc(Cl)c(Cl)c4)C(=O)N2C1)N1CC/C=C\C[C@@H](C1=O)N(C)C(=O)CN(C)C(=O)[C@H]([C@@H](C)CC)NC3=O [PP3052]
- HRAS/KRAS (ratio of KD value with respect to GDP-bound HRAS wild-type protein to KD value with respect to KRAS) [1]: A (a compound having 10 or more and less than 20 is denoted as A)
- NRAS/KRAS (ratio of KD value with respect to GDP-bound NRAS wild-type protein to KD value with respect to KRAS) [2]: AA (a compound having 20 or more is denoted as AA)
